Measured values taken from BindingDB's records for patent US11926614 (Oslo Universitetssykehus, 2024).

Target: T1, Poly [ADP-ribose] polymerase tankyrase-2 (Homo sapiens, UniProt Q9H2K2)
T1 sequence (Q9H2K2 whole entry): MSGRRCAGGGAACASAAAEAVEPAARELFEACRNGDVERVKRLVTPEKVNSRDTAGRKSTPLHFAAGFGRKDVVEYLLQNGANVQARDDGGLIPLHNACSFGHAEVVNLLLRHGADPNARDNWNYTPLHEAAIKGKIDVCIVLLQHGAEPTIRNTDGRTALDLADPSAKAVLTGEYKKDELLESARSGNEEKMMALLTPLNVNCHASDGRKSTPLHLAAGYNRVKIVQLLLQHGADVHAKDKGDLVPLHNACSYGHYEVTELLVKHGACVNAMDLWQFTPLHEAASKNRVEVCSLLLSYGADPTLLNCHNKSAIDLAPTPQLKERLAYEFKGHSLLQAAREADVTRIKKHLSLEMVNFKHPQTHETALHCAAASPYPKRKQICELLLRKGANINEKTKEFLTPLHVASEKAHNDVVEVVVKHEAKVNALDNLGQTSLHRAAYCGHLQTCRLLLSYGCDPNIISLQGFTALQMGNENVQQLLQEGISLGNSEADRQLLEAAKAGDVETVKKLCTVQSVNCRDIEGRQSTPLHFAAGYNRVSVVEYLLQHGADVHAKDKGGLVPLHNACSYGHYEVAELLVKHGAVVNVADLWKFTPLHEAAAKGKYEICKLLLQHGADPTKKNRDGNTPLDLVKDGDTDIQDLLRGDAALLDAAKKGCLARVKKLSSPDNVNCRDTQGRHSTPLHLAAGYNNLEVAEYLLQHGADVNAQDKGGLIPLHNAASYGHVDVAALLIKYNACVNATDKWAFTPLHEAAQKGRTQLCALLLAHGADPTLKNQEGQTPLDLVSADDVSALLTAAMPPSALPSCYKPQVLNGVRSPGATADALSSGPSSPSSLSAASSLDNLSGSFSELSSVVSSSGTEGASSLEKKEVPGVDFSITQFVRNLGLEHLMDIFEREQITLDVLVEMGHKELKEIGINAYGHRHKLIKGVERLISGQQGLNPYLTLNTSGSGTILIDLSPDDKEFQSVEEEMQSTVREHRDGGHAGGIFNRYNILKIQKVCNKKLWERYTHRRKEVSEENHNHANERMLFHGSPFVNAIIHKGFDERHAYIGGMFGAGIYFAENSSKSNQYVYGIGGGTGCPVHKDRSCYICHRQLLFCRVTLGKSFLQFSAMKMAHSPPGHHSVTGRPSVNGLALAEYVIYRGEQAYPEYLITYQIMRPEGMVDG
Assay: Biochemical Assay
Text: IC50 calculations:XLfit (idbs) was used to determine the IC50-values in inhibition experiments. The following formula was chosen to fit the data points (Langmuir Binding Isotherm):fit=((A+(B*x))+[…]*(1−exp((−1*D)*x)))/D)), res=(y−fit)

Work on O=C(N[C@H]1C[C@H](c2nnc(-c3nccs3)n2-c2ccccc2F)C1)c1ccnc2cc(F)cnc12 [US11926614, Example 29] yielded an IC50 of 2 nM.
